The values that follow come from PMC8876511, “Two out of Three Musketeers Fight against Cancer: Synthesis, Physicochemical, and Biological Properties of Phosphino Cu^I, Ru^II, Ir^III Complexes” (Pharmaceuticals, 2022).

For series [1], the system named is A549 cells. Kind of series: MTT cytotoxicity assay, A549. Type of series: cell-based, human. On the procedure:
(§1) Moreover, to investigate the activity of synthesized complexes as potential anticancer agents, their cytotoxicity toward a series of human cancer cell lines and a non-cancer cell line (HaCaT) was evaluated using the MTT assay. […] In addition, we also determined the cytotoxic activity of free ligands toward selected cancer cells. […] However, this effect depends on the cell line. […] The best values of cytotoxic activity of compounds have been obtained after 72 h of cell incubation. Additionally, synthesized complexes had high sensitivity to A549 cells, so this cell line was selected as the research subject for antitumor activity.
(§2) MCF7 cell line (human breast adenocarcinoma, morphology: epithelial-like, ATCC: HTB-22) and A549 cell line (human lung adenocarcinoma, morphology: epithelial, ATCC: CCL-185); HaCaT (human keratinocyte) were cultured in Dulbecco’s Modified Eagle’s Medium (DMEM, Corning, Poland) with phenol red, supplemented with 10% fetal bovine serum (FBS) and with 1% streptomycin/penicillin. Du-145 cell line (human prostate carcinoma); derived from metastatic site: brain was cultured in minimum essential medium (MEM, Corning) with only 10% fetal bovine serum (FBS). Cultures were incubated at 37 °C under a humidified atmosphere containing 5% CO2. Cells were passaged using a solution containing 0.05% trypsin and 0.5 mM EDTA. All media and other ingredients were purchased from ALAB, Poland.
(§3) Since most of the studied compounds are insoluble in aqueous media (Dulbecco’s Modified Eagle’s Medium or minimum essential medium (MEM, Corning), therefore, they needed to be pre-dissolved in DMSO for biological tests. DMSO concentration was kept below 1% in each tested concentration of each compound. Cytotoxicity was assessed by MTT assay performed according to the protocols described previously in the following experimental approaches: 6 h + 24 h, 24 h + 24 h, and 72 h + 24 h. In brief, 5×10^3 per well (0.2 mL) in the two first approaches, while 1×10^4 cells in the case of longer incubation time were seeded in 96-well flat-bottom microtiter plate, were incubated with the tested complexes at various ranges of concentrations. After an appropriate incubation time of 6, 24, or 72 h, the cells were washed thee time with PBS and fresh medium was applied for a further 24 h in each approach. Various compound concentrations (dilutions in proper medium supplemented with 1% FBS) were tested in five replicates and repeated at least three times. Determined values of IC50 (concentration of a drug required to inhibit the growth of 50% of the cells) are given as mean + S.D. (Standard Deviation). IC50 values were determined, from the plots of cell viability in the presence of various concentrations of each compound by matching dose–response curves and using the Origin 9.0 software. Furthermore, post-treatment survival assessment of the treated cells was analyzed under an inverted fluorescence microscope (Olympus IC51, Japan) with an excitation filter 470/20 nm. For this, cells were stained with two versatile fluorescence dyes: fluorescein diacetate (FDA, 5 mg/mL) and propidium iodide (PI, 5 mg/mL) in standard conditions in the dark for 20 min. Before visualization, dyes were removed and cells were washed with PBS twice.

In another series the test system is HaCaT cells. Kind of series: MTT cytotoxicity assay, HaCaT (non-cancer). Type of series: cell-based, human. Here is the method: as §1, §2, §3
(Tetrazolium dyes change colour on reduction, which living cells bring about.)

For series [2], the system named is A549 cells. The experiment in a line: Intracellular accumulation, fluorescence microscopy. Type of series: cell-based, human. The conditions noted are these: A549, 5 μM, 24 h. Here is the method: It has been reported that the cellular uptake efficacy of a compound is affected by many factors, such as lipophilicity. Synthesized complexes indicate blue fluorescence. Thus, their detection using fluorescence microscopy is possible. For this purpose, A549 (human lung adenocarcinoma epithelial) cells were incubated with Ir(III) complexes (5 μM) for 24 h and analyzed. Phalloidin was co-incubated with Ir(III) complexes to determine subcellular localization further.
The intracellular accumulation of the compound was assessed in the A549 cell line. Before imaging, cells were seeded on microscopic slides at a density of 1×10^5 cells and were kept at 37 °C with 5% CO2 humidified atmosphere for 24 h. After being washed with fresh medium, the cells were incubated with 5 μM solution of tested compound in cell medium for 24 h. Next, after being washed with HBSS, the cells were fixed for 10 min in 3.8% PFA and incubated with specific intracellular organelle probes: 200 nM Mito-Tracker green, 1 μg/mL Quinacrine, and 0.25 nM of PhalloidinAtto 488 (Molecular Probes, Invitrogen Life Technologies; Thermo Fisher Scientific, Waltham, MA, USA), diluted in HBSS buffer. After 30 min incubation, at 37 °C, in the dark, the cells were washed with HBSS two times, and the slide was transferred to the microscope stage and cells were visualized under a fluorescent Zeiss Axio Observer microscope. Registered images were analyzed with the Zeiss ZEN software.

The nature of another series: Solubility (qualitative). Type of series: physicochemical. As to conditions: H2O:DMSO (100:1).
The test system of series [3] is A549 cells. Kind of series: MTT cytotoxicity assay, A549. Type of series: cell-based, human. The conditions noted are these: 48 h.
The test system of series [4] is A549 cells. The experiment in a line: Annexin V-FITC/PI double staining, flow cytometry. Type of series: cell-based, human. The conditions noted are these: A549, 50 μM, 24 h. On the procedure:
The cell death induced by selected Ir(III) and Ru(II) complexes was assessed using Annexin V-FITC/PI double staining. Based on this assay the differentiation of the following cells population was possible: viable cells (Annexin-FITC negative, PI negative), apoptotic cells (Annexin-FITC positive, PI negative), late apoptotic cells (Annexin-FITC positive and PI positive), and necrotic cells (Annexin-FITC negative, PI positive). Treatment of A549 cells with Ir(III) or Ru(II) complexes leads to a dose-dependent increase in the percentage of cells in each phase (Figure 5).
Cell death was quantified using the AnnexinV-FITC/PI double staining kit (Sigma Aldrich). The cells (1 × 10^5 per well) were cultured overnight in 12-well plates. Then, cells were treated with tested compounds for 24 h. After this time, cells were passaged, collected by centrifugation, and washed twice in Hank’s Balanced Salt Solution (HBBS). The cells were then re-suspended in 500 μL binding buffer and stained with annexin V-FITC and PI according to the manufacturer’s instructions (Sigma Aldrich). Stained A549 cells were then examined using a Guava® easyCyte™ flow cytometer equipped with a 488 nm laser. The obtained data were analyzed using InCyte software (MerckMillipore, Burlington, MA, USA).
Background: In flow cytometry, cells or beads pass a laser one at a time.

On to `CCN(CC)C[P+](c1ccccc1)(c1ccccc1)[Ir-3]([Cl])([Cl])[C]1(C)C(C)=C(C)C(C)=C1C` [1a, Ir(η^5-Cp*)Cl2Ph2PCH2N(CH2CH3)2], for which the IC50 (as a rule, the concentration at which inhibition is half-maximal) in the series with A549 cells [1] (24 h) is 68 ± 5 µM; in the series with A549 cells [1] (72 h) it was 12 ± 3 µM; in the series with HaCaT cells (24 h), 456 ± 11 µM; in the series with HaCaT cells (72 h), 320 ± 19 µM; with A549 cells [3], 45 ± 4 µM. In the series with A549 cells [2], the penetration into cells entry is listed as “can penetrate A549 cells”. For the same compound, in the series with A549 cells [2], the subcellular localization entry is reported as “signal in whole (retain within the cytoplasm) cells with relative higher intensity in the nuclei”. Moreover, the “solubility in mixture of H2O:DMSO (100:1)” value in the series “Solubility (qualitative)” is “well soluble”.
Turning to “Ru(η^6-p-cymene)Cl2Ph2PCH2N(CH2CH3)2 [1b]”, the IC50 with A549 cells [1] (24 h) is 59 ± 3 µM; with A549 cells [1] (72 h) it was 10 ± 1 µM; in the series on HaCaT cells (24 h), 446 ± 20 µM; in the series on HaCaT cells (72 h), 303 ± 20 µM; in the series on A549 cells [3], 425 ± 38 µM. In the series with A549 cells [4], the “late apoptotic cells (upper right quadrant)” value is 30%. Moreover, in the series with A549 cells [2], the penetration into cells result is listed as “can penetrate A549 cells”. For the same compound, the subcellular localization result with A549 cells [2] is “localize mainly in nuclei”. In addition, the “solubility in mixture of H2O:DMSO (100:1)” value in “Solubility (qualitative)” is given as “well soluble”.
